Source: patent US5352667A, “Non-peptidic surrogates of the Arg-Gly-Asp sequence and pharmaceutical compositions comprising them” (priority 1991, dated 1994)

Test system: CD4^+ T cell adhesion to FN
Experiment: Inhibition of activated CD4+ T cell adhesion to FN
Type: cell-based, human
Procedure: To examine the adhesive properties of the T cells, 1 μg/50 μl/well of either fibronectin (FN) (Sigma), the 120 kD cell attachment fragment of FN (Telios Pharm. Inc. San Diego, CA), or laminin (LN) (Sigma), were added to 96-flat bottom microtiter-wells for 12 h. Unbound proteins were then washed away and remaining binding sites were blocked with 0.1% bovine serum albumin (BSA) added to the wells for 2 h and washed. CD4+T cells were purified from peripheral blood mononuclear leukocytes obtained from healthy human donors. The mononuclear cells were isolated using a Ficoll gradient, washed and incubated in RPMI supplemented with 10% fetal calf serum (FCS) and antibiotics in petri dishes at 37° C. humidified CO2 incubator. After 2 h, the non-adherent cells were isolated and applied on nylon-wool columns (1.5 h). CD4^+ T cells were then negatively selected by exposure of the cells to a cocktail of anti-CD8, CD19, and CD14 monoclonal antibodies (mAb) conjugated to magnetic-beads (Advanced Magnetics, MA). Unbound cells were recovered and their phenotype was examined. Purity of the CD4^+ T cells was always greater than 92% as determined by FACScan.
The purified CD4^+ T cells were radioactively labeled with ^51 [Cr](New England Nuclear) in RPMI +20% FCS for 2 h and washed. The cells were counted and seeded (0.2×10^5 cells) on the precoated microtiter wells in the presence or the absence of the various inhibitors. Coating was made either with FN, the 120 kD cell-attachment fragment of FN or with control adhesive protein laminin (LN). The inhibitors were various surrogates according to the invention, other test molecules or mAb. After 30 min incubation (in […] CO2 -- humidified incubator) the T cells were activated by 10 ng/ml phorbol myristate acetate (PMA) and the percent of T cells attached to the protein substrates was measured. Unbound cells were washed away after 20-30 min, the bound cells were lysed and their radioactivity was measured using radioactive counter. The amount of the radioactivity of the cell lysates represent the matrix-adherent cells and percent binding was calculated in comparison to the total radioactivity added to the wells. Activated T cell adhesion to control wells or to wells coated with BSA was always 2-5%; the level of adhesion of the non-activated T cells was always below 5%. Where indicated, 1/200 diluted mAb anti-CD29 (anti-β1 mAb Serotec, GB), or 1/400 diluted anti-VLA5 (the β1α5 FN-integrin receptor) mAb (Telios Pharm. Inc. San Diego), or 0.2 mM of RGD, GRGDSPK or GRGESP peptides (Sigma) were used. […] The results shown in Tables 1A, 1B and 1C represent data obtained from several experiments that produced essentially similar results.
In a second series of experiments, FN was used in the adhesion assay carried out with the RGD surrogates NS-8, NS-11 and NS-15 in comparison to RGDS peptide.
In a third series of experiments, FN was used in the adhesion assay with the surrogates SF-6,5 and NS-11 and compared to the peptide GRGDSP.

## N=C(N)NCCCCCC(=O)NCCCCC(=O)O [SF-6,5, 6-aza-7-oxo-12-quanidino-dodecanoic acid]
Conc. 25 μg. ml
  % Adhesion of activated CD4^+ T cell to FN: (% inhibition): 10%
Conc. 50 μg. ml
  % Adhesion of activated CD4^+ T cell to FN: (% inhibition): 25%
Conc. 100 μg. ml
  % Adhesion of activated CD4^+ T cell to FN: (% inhibition): 38%
Conc. 200 μg. ml
  % Adhesion of activated CD4^+ T cell to FN: (% inhibition): 55%
